Test results from patent US11465989B2, “Guanidine compounds and use thereof” (IMMUNOMET THERAPEUTICS INC., priority 2014, dated 2022).

Key:
SK-MEL-239 tumor cells [1] = test: In vivo xenograft model using SK-MEL-239 cell; design: species or system mice
Experimental: The compounds of the present invention were evaluated in vivo using xenograft human cancer model in mice. The compounds of invention were administrated orally or interperitoneal injection. Tumor cell lines were cultured in vitro as monolayer culture. Using female BALB/c nude mice with immune system compromised, each mouse was inoculated subcutaneously at the right flank with tumor cells for tumor development. The treatment was started when the tumor size reaches approximately 100 mm^3
The SK-MEL-239 tumor cell line was maintained in vitro as monolayer in RPMII 640 medium supplemented with 10% heat inactivated fetal bovine serum, 100 U/ml penicillin and 100 μg/ml streptomycin, and L-glutamine (2 mM) at 37° C. in an atmosphere of 5% CO2 in air. The tumor cells were routinely subcultured twice weekly with 0.5% trypsin-EDTA treatment. The cells growing in an exponential growth phase were harvested and counted for tumor cell inoculation.
Female BALB/c nude mice aged 6-8 weeks and weighing approximately 18-22 g were purchased from Vital River. Each mouse was inoculated subcutaneously at the right flank with SK-MEL-239 tumor cells (1×10^7) in 0.1 ml of PBS for tumor development. The treatment was started, when the tumor size reaches approximately 100 mm^3. 100 mg/kg of Phenformin and 15 mg/kg of Vemurafenib were administered via oral gavage twice daily and 100 mg/kg HLPOI (HL176001001) was administered once daily for 21 days. Tumor volumes were measured twice a week in two dimensions using a caliper, and the volume was expressed in mm^3 using the formula: V=0.5×a×b^2, where a and b were the long and short diameters of the tumor, respectively. The T/C value (in percentage) was an indication of antitumor effect. T and C were the mean volumes of the treated and control groups, respectively.

A549 cells = test: In vitro combination study with Dasatinib on A549 cell; type: cell-based; settings: 0.05 μM of Dasatinib and 8 μM of Phenformin
Experimental: (§1) A549, H1975 (CRL5908, ATCC) or U937 cell (CRL1593.2™, ATCC) lines were cultured in RPMI 1640 media (Lifetechnologies, CA) with supplement of 10% FBS and antibiotic-antimycotic (Lifetechnologies, CA). Dasatinib (Combi-Blocks, San Diego, Calif.) is Bcr-Abl-tyrosine kinase inhibitor and Src family tyrosine kinase inhibitor approved for CML treatment. GDC094 (Selleckchem, Houston, Tex.) is a pan-PI3K inhibitor and effective in various cancer cells. H1975 or A549 cells were dissociated from culture plate using 0.5% trypsin-EDTA (Lifetechnologies, CA) and were suspended. U937 cells were spun down using centrifugation. […]
(§2) Among four concentrations of the compounds of present invention, the highest concentration was set to IC80 and the lowest concentration was approximately IC30. […] 100 μl of DMSO was added after removing MTT solution from each well, and were read by VICTOR X3 Multilabel Counter at the wavelength of 550 nm.
(§3) For the analysis of U937 cell viability, 20 μl of Celltiter96® AQueous one solution (MTS, Promega, Madison, Wis.) were added to each well, and plates were incubated at 37° C. and 5% CO2. After 2 hours later, plates read by VICTOR X3 Multilabel Counter at the wavelength of 490 nm. The combination index (CI value) was calculated using Calcusyn (Biosoft, UK).

SK-MEL-239 tumor cells [2] = test: In vivo xenograft model using SK-MEL-239 cell; design: species or system mice; settings: Dosing 150/100 mg/kg, oral, twice daily
H1975 cell = test: In vitro combination study with Dasatinib on H1975 cell; type: cell-based; settings: 0.2 μM of Dasatinib, 8 μM or 40 μM of Example 1, 40 μM or 200 μM of Example 104
Experimental: as §1, §2, §3

[3] = Dosing 15 mg/kg, oral, twice daily, Day 28

Compound: CCCS(=O)(=O)Nc1ccc(F)c(C(=O)c2c[nH]c3ncc(-c4ccc(Cl)cc4)cc23)c1F [Vemurafenib, reference compound]
- T/C (Day 28, %) (SK-MEL-239 tumor cells [1]; [3]): 38.0%
- Tumor Volume (Day 28, mm^3, a) (SK-MEL-239 tumor cells [1]; [3]): 1,144 ± 101 mm^3

Compound: [H]/N=C(/N)N/C(=N/[H])NCCc1ccccc1 [Phenformin, phenformin, reference compound]
- synergic effect in combination with Dasatinib (A549 cells): did not show the synergic effect
- tumor volume compared to the control group (SK-MEL-239 tumor cells [1]; 100 mg/kg, Phenformin twice daily, Example 1 once daily): significant reduction of tumor volume
- tumor volume compared to the single administration of Vemurafenib (SK-MEL-239 tumor cells [1]; in combination with 15 mg/kg of Vemurafenib): did not show the significant reduction of tumor volume
- T/C (Day 28, %) (SK-MEL-239 tumor cells [2]): 52.2%
- Tumor Volume (Day 28, mm^3, a) (SK-MEL-239 tumor cells [2]): 1,562 ± 166 mm^3

Compound: Cl.N=C(N)NC(=N)NCCc1ccc(F)cc1 [Example 104, N-1-(4-fluoro)phenethylbiguanide hydrochloride]
- combination therapy effect with Dasatinib (H1975 cell): low combination therapy effect
